From patent publication US10209240B2, “Predicting human developmental toxicity of pharmaceuticals using human stem-like cells and metabolomic ratios” (STEMINA BIOMARKER DISCOVERY, INC., priority 2012, dated 2019)
Like-named read-outs stand apart in the source and are kept apart here. One block for each molecule: values may come before it.

What was measured:
[1] = test system: WA09 hES cells
[2] = test system: hES cells; assay: ADMA/cystine ratio simplified predictive model in hES cell spent media; type: cell-based, human; details: single dose per treatment; ratios less than 0.9 indicate teratogenicity
From the text: (§1) This simplified model is based on a ratio of the reference treatment (DMSO) normalized values of ADMA and cystine.
The X-axis is the reference normalized ratio of ADMA/Cystine. The y-axis is the training set of pharmaceuticals. Grey color with triangle glyphs represents teratogens and black color with circle glyphs represents non-teratogens. Each glyph point represents the media value of an independent experimental block (6 reps per block). The crosshair glyphs mark the sample medians. In FIG. 9, grey vertical line is threshold of teratogenicity, grey horizontal lines are the median absolute deviations, and black vertical line designates 1.0. The arrows at the bottom indicate the values used for differentiation of teratogens and nonteratogens, utilizing a cut off of 0.9 (grey line).

[3] = test system: WA09 hES cells; assay: Phase 2 targeted biomarker assay, ornithine/cystine ratio, 9-point dose response
In short: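 WA09 hES cells (≤ passage 40), plated as single cells at 100,000/well on Matrigel in mTeSR1 with 10 μM Y27632, dosed 24 h later with nine 3-fold dilutions, 0.04–300 μM, 0.1% DMSO, for 72 h. Final-24 h spent medium, spiked with 13C6-arginine and filtered (<10 kDa), analysed by LC-HRMS; viability by CellTiter-Fluor.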

[4] = test system: Humans; details: cited from earlier work; for Humans (known human developmental toxicity): training and test set; for Known Effect: validation and test set treatments of Example 2
[5] = test system: rat whole embryo; details: training and test set; weak/moderate and strong teratogens both labeled teratogen; cited from earlier work
[6] = test system: Rabbit; details: training and test set; cited from earlier work
[7] = summarized from TERIS and Briggs et al. 2011, cited from earlier work
[8] = test system: mouse embryonic stem cell; details: training and test set; weak/moderate and strong teratogens both labeled teratogen; cited from earlier work
[9] = therapeutic peak plasma in vivo concentration, human, cited from earlier work
[10] = test system: hES cells; assay: devTOX computational model predictions (Version 2.0, Version 2.1) from hES cell metabolomics; type: cell-based, human; details: single dose per treatment (Dose column)
From the text: The selection process weighted the predictive capacity of a feature, overall intensity, and peak shape to identify very well behaved features/metabolites that could be measured by targeted LC-MS or even by other detection systems.
as §1

[11] = test system: zebrafish; details: training and test set; weak/moderate and strong teratogens both labeled teratogen; cited from earlier work
[12] = test system: Rodent; details: training and test set; cited from earlier work
[13] = Solubility in DMSO for stock solutions
Description: Phase I hES Cell Compound Exposure. hES cells were treated with a test compound at a single concentration equivalent to the compound's published therapeutic Cmax. […] This was done to ensure that enough cells were present at the time of sample collection to provide a signal for LC-HRMS analysis. For test compound exposure, all compound stock solutions, with the exception of valproic acid, were made with DMSO (Sigma-Aldrich). […] Each 96-well plate included media controls with and without test compound, 0.1% DMSO solvent control cells and cells exposed to a single concentration of eight different test compounds (FIG. 1A). Media controls were included on each plate to assess the impact of test compound on the sample matrix. hES cells were exposed to the test compound for 72 hours, with media and test compound replacement every 24 hours. Cells were monitored throughout the treatment period to ensure that no differentiation was occurring. After 72 hours of treatment, the spent media from the final 24-hour treatment period was collected and added to acetonitrile (Sigma-Aldrich, final acetonitrile concentration 40%), to halt metabolic processes and precipitate proteins from solution. Individual wells from each 96-well plate were collected and analyzed as separate samples. These samples were then stored at −80° C. until prepared for LC-HRMS analysis. Cell viability was assessed using the CellTiter-Fluor Cell Viability Assay as per the manufacturer's instructions (Promega, Madison, Wis.). […]
Phase 2 hES Cell Compound Exposure. […] Cell viability was assessed using the CellTiter-Fluor Cell Viability Assay. A quality control step was included with criteria that the CV of the measured viability RFU of the DMSO control cells could not exceed 10% for a plate to undergo LC-HRMS analysis. […]

[14] = training set, teratogenicity potential scored against therapeutic Cmax

Targeted Biomarker Assay prediction [3]: NON
Solubility in DMSO (words) [13]: completely insoluble in DMSO
Structure (SMILES): Nc1nc2ncc(CNc3ccc(C(=O)N[C@@H](CCC(=O)O)C(=O)O)cc3)nc2c(=O)[nH]1 [Folic Acid]
Viability Prediction [1]: NON
Teratogenicity Potential (μM) Cell Viability ([1]; human, 72 h): >300 µM
Model Predictions ADMA/Cystine [2]: Non
Humans (known human developmental toxicity) [4]: NON
Cmax ([9]; training set): 35 nM
Model Predictions Version 2.0 [10]: Ter
Model Predictions Version 2.1 [10]: Non

O/C Ratio Prediction [3]: NON
Targeted Biomarker Assay prediction [3]: NON
Structure (SMILES): NNC(=O)c1ccncc1 [Isoniazid]
Viability Prediction [1]: NON
Teratogenicity Potential (μM) Cell Viability ([1]; human, 72 h): >300 µM
Model Predictions ADMA/Cystine [2]: Non
Teratogenicity Potential (μM) O/C Ratio ([3]; human, 72 h): 165.4 µM
Humans (known human developmental toxicity) [4]: NON
Known Effect [4]: Non
WEC prediction [5]: TER^f,j
Rabbit prediction [6]: NON
Preclinical in vivo and known human developmental effects ([7]; training set compounds): None
mEST prediction [8]: NON^b,i
Cmax ([9]; training set): 51000 nM
Model Predictions Version 2.0 [10]: Ter
Model Predictions Version 2.1 [10]: Ter
ZET prediction [11]: NON^c,n
Rodent prediction [12]: NON

O/C Ratio Prediction [3]: NON
Targeted Biomarker Assay prediction [3]: NON
Structure (SMILES): O=C1NS(=O)(=O)c2ccccc21 [Saccharin]
Viability Prediction [1]: NON
Teratogenicity Potential (μM) Cell Viability ([1]; human, 72 h): >300 µM
Model Predictions ADMA/Cystine [2]: Non
Change in the o/c ratio, also relative to cytotoxicity [3]: no change in the o/c ratio or viability
Teratogenicity Potential (μM) O/C Ratio ([3]; human, 72 h): >300 µM
Humans (known human developmental toxicity) [4]: NON
Known Effect [4]: Non
WEC prediction [5]: NON^j
Rabbit prediction [6]: NON
Preclinical in vivo and known human developmental effects ([7]; training set compounds): None
mEST prediction [8]: NON^b,i
Cmax ([9]; training set): 1400 nM
Model Predictions Version 2.0 [10]: Non
Model Predictions Version 2.1 [10]: Non
ZET prediction [11]: NON^c,e
Rodent prediction [12]: NON

The remaining lines, values behind:

Structure (SMILES): O=c1[nH]cc(F)c(=O)[nH]1 [5-Fluorouracil]
Viability Prediction [1]: TER
Cytotoxicity at the Cmax exposure level ([1]; human, 72 h): greater than 30%
Teratogenicity Potential (μM) Cell Viability ([1]; human, 72 h): 2 µM
Model Predictions ADMA/Cystine [2]: Ter
Change in the o/c ratio, also relative to cytotoxicity [3]: change in o/c ratio that is directly correlated with a decrease in cell viability
O/C Ratio Prediction [3]: TER
Targeted Biomarker Assay prediction [3]: TER
Teratogenicity Potential (μM) O/C Ratio ([3]; human, 72 h): 3 µM
Humans (known human developmental toxicity) [4]: TER
Known Effect [4]: Ter
WEC prediction [5]: TER^f,k
Rabbit prediction [6]: TER
Preclinical in vivo and known human developmental effects ([7]; training set compounds): Craniofacial, central
mEST prediction [8]: TER^b,i
Cmax ([9]; training set): 4250 nM
Model Predictions Version 2.0 [10]: Ter
Model Predictions Version 2.1 [10]: Ter
ZET prediction [11]: TER^c
Rodent prediction [12]: TER

Structure (SMILES): CN(Cc1cnc2nc(N)nc(N)c2n1)c1ccc(C(=O)N[C@@H](CCC(=O)O)C(=O)O)cc1 [Methotrexate]
Viability Prediction [1]: TER
Cytotoxicity at the Cmax exposure level ([1]; human, 72 h): greater than 30%
Teratogenicity Potential (μM) Cell Viability ([1]; human, 72 h): 0.05 µM
Model Predictions ADMA/Cystine [2]: Ter
O/C Ratio Prediction [3]: TER
Targeted Biomarker Assay prediction [3]: TER
Teratogenicity Potential (μM) O/C Ratio ([3]; human, 72 h): 0.05 µM
Humans (known human developmental toxicity) [4]: TER
Known Effect [4]: Ter
WEC prediction [5]: TER^f
Rabbit prediction [6]: TER
Preclinical in vivo and known human developmental effects ([7]; training set compounds): Craniofacial, limb, skeletal,
mEST prediction [8]: TER^b,i
Cmax ([9]; training set): 200 nM
Model Predictions Version 2.0 [10]: Ter
Model Predictions Version 2.1 [10]: Ter
ZET prediction [11]: TER^d
Rodent prediction [12]: TER

Structure (SMILES): CCN(CC)CCNC(=O)c1cc(Cl)c(N)cc1OC [Metoclopramide]
Viability Prediction [1]: NON
Teratogenicity Potential (μM) Cell Viability ([1]; human, 72 h): >300 µM
Model Predictions ADMA/Cystine [2]: Non
O/C Ratio Prediction [3]: NON
Targeted Biomarker Assay prediction [3]: NON
Teratogenicity Potential (μM) O/C Ratio ([3]; human, 72 h): 190.8 µM
Humans (known human developmental toxicity) [4]: NON
Known Effect [4]: Non
WEC prediction [5]: NON^f,j
Rabbit prediction [6]: NON
Preclinical in vivo and known human developmental effects ([7]; test set compounds): None
mEST prediction [8]: TER^i,m
Cmax ([9]; test set): 150 nM
Model Predictions Version 2.0 [10]: Ter
Model Predictions Version 2.1 [10]: Non
ZET prediction [11]: NON^d
Rodent prediction [12]: NON

Structure (SMILES): CC1(C)S[C@@H]2[C@H](NC(=O)Cc3ccccc3)C(=O)N2[C@H]1C(=O)O [Penicillin G]
Teratogenicity Potential (μM) Cell Viability ([1]; training set, interpolated concentration where cell viability dose response curve crosses teratogenicity threshold 0.88, 72 hours): >300 µM
Viability Prediction [1, 14]: NON
Model Predictions ADMA/Cystine [2]: Non
Targeted Biomarker Assay prediction ([3]; training and test set, o/c ratio scored against therapeutic Cmax): NON
Teratogenicity Potential (μM) O/C Ratio ([3]; training set, interpolated concentration where o/c ratio dose response curve crosses teratogenicity threshold 0.88, 72 hours): >300 µM
O/C Ratio Prediction [3, 14]: NON
Humans (known human developmental toxicity) [4]: NON
Known Effect [4]: Non
WEC prediction [5]: NON^f,j
Rabbit prediction [6]: NON
Preclinical in vivo and known human developmental effects ([7]; training set compounds): None
mEST prediction [8]: NON^b,i
Cmax ([9]; training set): 135000 nM
Model Predictions Version 2.0 [10]: Non
Model Predictions Version 2.1 [10]: Non
ZET prediction [11]: NON^c,e,n
Rodent prediction [12]: NON

Structure (SMILES): CC1=C(/C=C/C(C)=C/C=C/C(C)=C/CO)C(C)(C)CCC1 [Retinol]
Viability Prediction [1]: NON
Teratogenicity Potential (μM) Cell Viability ([1]; human, 72 h): 42.8 µM
Model Predictions ADMA/Cystine [2]: Non
Change in the o/c ratio, also relative to cytotoxicity [3]: o/c ratio is directly correlated with cell death
Classification by o/c ratio in the targeted biomarker assay [3]: correctly classify
O/C Ratio Prediction [3]: NON
Targeted Biomarker Assay prediction [3]: NON
Exposure level of o/c ratio change/cell death relative to levels normally encountered by humans ([3]; human, 72 h): ~20 times
Teratogenicity Potential (μM) O/C Ratio ([3]; human, 72 h): 42.2 µM
Dose shown to cause malformations ([4]; experimental animals and humans, Teratology Society 1987): > 25,000 IU/day
Dose without adverse effect on the developing fetus (FDA maximum RDA) ([4]; human pregnancy): ≤ 8,000 IU
Humans (known human developmental toxicity) [4]: NON
Known Effect [4]: Non
WEC prediction [5]: TER^q
Rabbit prediction [6]: TER
Preclinical in vivo and known human developmental effects ([7]; training set compounds): Low Doses: None; High
mEST prediction [8]: NON^p
Cmax ([9]; training set): 2400 nM
Model Predictions Version 2.0 [10]: Ter
Model Predictions Version 2.1 [10]: Non
ZET prediction [11]: TER^c,n
Rodent prediction [12]: TER
